# Data reported in US20250144067A1, “PERSONALIZED STARVATION THERAPY FOR CANCER” (Faeth Therapeutics, Inc., priority 2021, published 2025).
# Where a name gives a salt, the structure may show the parent alone.
# What was measured:
# [1] = system: NCI-H292 lung cancer cells; test: FDA drug screening, complete media vs cholesterol-free media without statin (TABLE 1); format: cell-based, human
# [2] = system: NCI-H292 lung cancer cells; test: FDA drug screening, complete media vs cholesterol-free media with simvastatin (TABLE 2); format: cell-based, human; settings: for Cholesterol-free media + simvastatin (0.04 μM) / Complete Media: NCI-H292 cells
# [3] = Complete minus Cholesterol-free, greater than 0 enhanced anti-cancer activity, about 0 neutral, below 0 antagonist
# [4] = NCI-H292 cells, FDA drug library screen, cholesterol-free media without statin
# [5] = NCI-H292 cells, FDA drug library screen, complete media
# [6] = cholesterol-free media with simvastatin 0.04 μM, cell growth value in FDA drug screen
# [7] = complete media, cell growth value in FDA drug screen
# [8] = complete media minus cholesterol-free media + simvastatin, >0 enhanced anti-cancer activity, about 0 neutral, <0 antagonist
# [9] = NCI-H292 cells, cholesterol-free media without statin
# [10] = complete vs cholesterol-free media, greater than 0 enhanced anti-cancer activity, about 0 neutral, below 0 antagonists
# [11] = FDA drug library screen, cholesterol-free media with simvastatin 0.04 μM
# [12] = FDA drug library screen, complete media
# [13] = complete media vs cholesterol-free media + simvastatin (0.04 μM), >0 enhanced anti-cancer activity, about 0 neutral, <0 antagonist
# [14] = NCI-H292 cells, cholesterol-free media without statin, FDA drug library screen
# [15] = NCI-H292 cells, complete media, FDA drug library screen
# [16] = complete vs cholesterol-free media, >0 enhanced anti-cancer activity, about 0 neutral, <0 antagonist
# [17] = Complete minus Cholesterol-free, >0 enhanced anti-cancer activity, about 0 neutral, <0 antagonist
# [18] = FDA library drug in cholesterol-free media with simvastatin 0.04 μM
# [19] = FDA library drug in complete media
# [20] = drug in cholesterol-free media with simvastatin 0.04 μM
# [21] = Complete minus Cholesterol-free, greater than 0 enhanced anti-cancer activity, about 0 neutral, below 0 antagonists
# [22] = NCI-H292 cells in cholesterol-free media without statin
# [23] = NCI-H292 cells in complete media
# [24] = cholesterol-free media with simvastatin 0.04 μM, FDA drug library screen (TABLE 2)
# [25] = complete media, FDA drug library screen (TABLE 2)
# [26] = complete media minus cholesterol-free media + simvastatin (0.04 μM), >0 enhanced anti-cancer activity, about 0 neutral, <0 antagonist
# [27] = Complete minus Cholesterol-free, […]
# [28] = cholesterol-free media with simvastatin 0.04 μM, […]
# [29] = complete media minus cholesterol-free media + simvastatin, […]
Structure (SMILES),"Cholesterol-free [1, 9]","Complete ([1]; NCI-H292 cells, complete media)","Cholesterol-free media + simvastatin (0.04 μM) [2, 11]","Complete Media [2, 12]","Difference [2, 13]","Cholesterol-free [1, 14]","Complete [1, 15]","Difference [1, 17]",further results
Cc1nc(C(=O)NCC(=O)O)c(O)c2ccc(Oc3ccccc3)cc12 [Roxadustat],,,,,,,,,"Difference [1, 3]: −0.11; Cholesterol-free [1, 4]: 1.074; Complete [1, 5]: 0.9662; Cholesterol-free media + simvastatin (0.04 μM) [2, 6]: 1.201; Complete Media [2, 7]: 1.327; Difference [2, 8]: 0.13"
CC(=O)OCC(=O)NCCCOc1cccc(CN2CCCCC2)c1.Cl [Roxatidine (Acetate Hydrochloride)],1.511,1.141,1.117,1.004,−0.11,,,,"Difference [1, 10]: −0.37"
CC[C@H]1OC(=O)[C@H](C)[C@@H](O[C@H]2C[C@@](C)(OC)[C@@H](O)[C@H](C)O2)[C@H](C)[C@@H](O[C@@H]2O[C@H](C)C[C@H](N(C)C)[C@H]2O)[C@](C)(O)C[C@@H](C)/C(=N\OCOCCOC)[C@H](C)[C@@H](O)[C@]1(C)O [Roxithromycin],,,0.9837,0.8382,−0.15,0.9904,1.336,,"Difference [1, 16]: 0.35"
CNCc1ccc(-c2[nH]c3cc(F)cc4c3c2CCNC4=O)cc1 [Rucaparib (Camsylate)],1.063,0.7996,,,−0.28,,,−0.26,"Cholesterol-free media + simvastatin (0.04 μM) [2, 18]: 1.277; Complete Media [2, 19]: 0.994"
CNCc1ccc(-c2[nH]c3cc(F)cc4c3c2CCNC4=O)cc1 [Rucaparib],,,,,−0.34,0.9041,0.881,−0.02,"Cholesterol-free media + simvastatin (0.04 μM) [2, 18]: 1.04; Complete Media [2, 19]: 0.7044"
NC(=O)c1cn(Cc2c(F)cccc2F)nn1 [Rufinamide],,,0.995,0.8999,−0.10,0.9822,0.9785,0.00,
CN1CCN(c2c(F)cc3c(=O)c(C(=O)O)cn4c3c2SCC4)CC1 [Rufloxacin hydrochloride],1.291,1.016,0.949,1.098,,,,−0.28,"Difference [2, 8]: 0.15"
C[C@@H]1O[C@@H](OC[C@H]2O[C@@H](Oc3c(-c4ccc(O)c(O)c4)oc4cc(O)cc(O)c4c3=O)[C@H](O)[C@@H](O)[C@@H]2O)[C@H](O)[C@H](O)[C@H]1O [Rutin],,,,,−0.22,1.229,1.309,,"Difference [1, 16]: 0.08; Cholesterol-free media + simvastatin (0.04 μM) [2, 20]: 1.71; Complete Media ([2]; drug in complete media): 1.488"
N#CC[C@H](C1CCCC1)n1cc(-c2ncnc3[nH]ccc23)cn1 [Ruxolitinib (S enantiomer)],,,,,−0.26,,,,"Difference [1, 21]: −0.48; Cholesterol-free [1, 22]: 1.03; Complete [1, 23]: 0.5541; Cholesterol-free media + simvastatin (0.04 μM) [2, 20]: 0.9634; Complete Media ([2]; drug in complete media): 0.7007"
N#CC[C@H](C1CCCC1)n1cc(-c2ncnc3[nH]ccc23)cn1 [Ruxolitinib],,,0.6455,0.5664,−0.08,0.6188,0.6101,−0.01,
C[C@H](C(=O)O)c1cccc(C(=O)c2ccccc2)c1 [S-(+)-Ketoprofen],1.312,0.984,,,−0.21,,,,"Difference [1, 10]: −0.33; Cholesterol-free media + simvastatin (0.04 μM) [2, 20]: 0.9554; Complete Media ([2]; drug in complete media): 0.7437"
C[S+](CC[C@H](N)C(=O)O)C[C@H]1O[C@@H](n2cnc3c(N)ncnc32)[C@H](O)[C@@H]1O.Cc1ccc(S(=O)(=O)[O-])cc1 (stereo partly drawn) [S-Adenosyl-L-methionine (tosylate)],,,1.239,1.842,,0.8583,1.043,,"Difference [1, 16]: 0.19; Difference [2, 8]: 0.60"
O=C1NS(=O)(=O)c2ccccc21 [Saccharin],,,0.8779,0.7765,−0.10,0.9292,0.9415,0.01,
CCOC(=O)[C@H](C)C[C@@H](Cc1ccc(-c2ccccc2)cc1)NC(=O)CCC(=O)O [Sacubitril hemicalcium salt],,,,,,0.6536,1.134,,"Difference [1, 16]: 0.48; Cholesterol-free media + simvastatin (0.04 μM) [2, 24]: 1.02; Complete Media [2, 25]: 1; Difference [2, 26]: −0.02"
CCOC(=O)[C@H](C)C[C@@H](Cc1ccc(-c2ccccc2)cc1)NC(=O)CCC(=O)O [Sacubitril],1.009,0.7049,,,,,,−0.30,"Cholesterol-free media + simvastatin (0.04 μM) [2, 6]: 1.492; Complete Media [2, 7]: 1.622; Difference [2, 8]: 0.13"
C[C@H](NCc1ccc(OCc2cccc(F)c2)cc1)C(N)=O [Safinamide],,,,,,,,,"Difference [1, 3]: −0.13; Cholesterol-free [1, 4]: 1.086; Complete [1, 5]: 0.9537; Cholesterol-free media + simvastatin (0.04 μM) [2, 24]: 1.059; Complete Media [2, 25]: 1.012; Difference [2, 26]: −0.05"
NC(=O)c1ccccc1O [Salicylamide],,,,,,,,,"Difference [1, 21]: −0.58; Cholesterol-free [1, 22]: 1.486; Complete [1, 23]: 0.907; Cholesterol-free media + simvastatin (0.04 μM) [2, 24]: 1.206; Complete Media [2, 25]: 1.141; Difference [2, 26]: −0.07"
O=C(Nc1ccccc1)c1ccccc1O [Salicylanilide],,,,,,,,,"Difference [1, 27]: −0.19; Cholesterol-free [1, 4]: 1.231; Complete [1, 5]: 1.046; Cholesterol-free media + simvastatin (0.04 μM) [2, 28]: 1.321; Complete Media ([2]; complete media, […]): 1.359; Difference [2, 29]: 0.04"
O=C(O)c1ccccc1O [Salicylic acid],,,0.9788,0.8703,−0.11,,,,"Difference [1, 3]: −0.09; Cholesterol-free [1, 4]: 0.9773; Complete [1, 5]: 0.8829"
OCc1cc(C(O)CNCCCCCCOCCCCc2ccccc2)ccc1O (stereo not drawn) [Salmeterol (xinafoate)],1.696,1.368,0.9341,1.186,,,,,"Difference [1, 10]: −0.33; Difference [2, 8]: 0.25"
OCc1cc(C(O)CNCCCCCCOCCCCc2ccccc2)ccc1O (stereo not drawn) [Salmeterol],,,0.6428,0.8345,,0.865,0.8548,−0.01,"Difference [2, 8]: 0.19"
O=C(Oc1ccccc1C(=O)O)c1ccccc1O [Salsalate],1.58,1.132,,,,,,,"Difference [1, 10]: −0.45; Cholesterol-free media + simvastatin (0.04 μM) [2, 6]: 0.8804; Complete Media [2, 7]: 0.9361; Difference [2, 8]: 0.06"
CC1=C2[C@H]3OC(=O)[C@@H](C)[C@@H]3CC[C@@]2(C)C=CC1=O [Santonin],,,,,,,,,"Difference [1, 27]: −0.53; Cholesterol-free [1, 22]: 1.389; Complete [1, 23]: 0.8572; Cholesterol-free media + simvastatin (0.04 μM) [2, 20]: 1.229; Complete Media ([2]; drug in complete media): 1.004; Difference ([2]; complete media vs cholesterol-free media + simvastatin (0.04 μM), […]): −0.23"
C[C@H](O)[C@H](O)[C@H]1CNc2nc(N)[nH]c(=O)c2N1 [Sapropterin (dihydrochloride)],1.242,1.038,,,−0.16,,,−0.20,"Cholesterol-free media + simvastatin (0.04 μM) [2, 20]: 1.145; Complete Media ([2]; drug in complete media): 0.9841"
CC(C)(C)NC(=O)[C@@H]1C[C@@H]2CCCC[C@@H]2CN1C[C@@H](O)[C@H](Cc1ccccc1)NC(=O)[C@H](CC(N)=O)NC(=O)c1ccc2ccccc2n1 [Saquinavir],1.314,0.9252,,,−0.19,,,,"Difference [1, 10]: −0.39; Cholesterol-free media + simvastatin (0.04 μM) [2, 20]: 0.9867; Complete Media ([2]; drug in complete media): 0.801"
CNCC(=O)N[C@@H](CCCN=C(N)N)C(=O)N[C@H](C(=O)N[C@@H](Cc1ccc(O)cc1)C(=O)N[C@H](C(=O)N[C@@H](Cc1cnc[nH]1)C(=O)N1CCC[C@H]1C(=O)N[C@@H](C)C(=O)O)C(C)C)C(C)C [Saralasin (TFA)],,,,,,1.11,1.396,,"Difference ([1]; complete vs cholesterol-free media, […]): 0.29; Cholesterol-free media + simvastatin (0.04 μM) [2, 28]: 0.7862; Complete Media ([2]; complete media, […]): 0.8195; Difference [2, 29]: 0.03"
COc1cccc(CCc2ccccc2OCC(CN(C)C)OC(=O)CCC(=O)O)c1 (stereo not drawn) [Sarpogrelate (hydrochloride)],1.015,0.6472,,,−0.29,,,,"Difference [1, 10]: −0.37; Cholesterol-free media + simvastatin (0.04 μM) [2, 18]: 1.378; Complete Media [2, 19]: 1.089"
